From patent US20060111287A1, “Acetylated protein” (priority 2002, published 2006)
Entries after “also recorded” stand apart in the source; their conditions may differ. Like-named read-outs stand apart in the source and are kept apart here.

Legend:
[1] = system: 3T3 cells; assay: HMGB1 acetylation pattern by 2D gel electrophoresis and anti-HMGB1 blot after deacetylase inhibitors; type: cell-based, mouse; details: for hyperacetylation of HMGB1: cell lines with low complexity of HMGB1 acetylation (3T3 mouse fibroblasts, HeLa cells, HEK cells)
Description: (C) Most cell lines contain 2 isoforms of HMGB1, and the protein can be hyperacetylated with TSA treatment. 3T3 cells were incubated for 6 hours in DMEM, or DMEM supplemented with 10 ng/ml TSA, then collected and lysed.
About 50 μg of purified HMGB1 or about 250 μg of total cellular protein were added to 350 μl of rehydration buffer (RB), containing 8 M urea, 2% CHAPS, 20 mM dithioerythritol (DTE), 0.8% IPG buffer (carrier ampholytes, pH 3-10 non-linear or pH 4-7 linear). Samples were applied on 18 cm polyacrylamide gel strips (pH range: 3-10 NL, or pH 4-7 L). Isoelectrophocusing (IEF) was performed in IPGphor (Pharmacia Biotech). IEF was stopped at 75000-90000 VoltHours. Second dimension runs were performed using a Protean II apparatus (Bio-Rad). After IEF, strips were soaked first in equilibration buffer (EB: 6 M urea, 3% SDS, 375 mM Tris pH 8.6, 30% glycerol, 2% DTE), then in EB containing 3% iodoacetamide (LAA) and traces of bromophenol blue (BBP). Strips were then applied onto 10%-12% polyacrylamide gels. Gels were run at 90 V for about 16 hours, and were then either silver stained or transferred onto nitrocellulose membranes (ECL, Amersham) in 25 mM Tris pH 7.5, 0.192 M glycine, 20% methanol.

[2] = system: U937.12 cells; assay: HMGB1 relocation from nucleus to vesicles in LPS-challenged U937.12 cells (immunofluorescence); type: cell-based
Description: (§1) Fibroblasts and HeLa cells were cultured in Dulbecco's modified Eagle's medium (DMEM) supplemented with 10% fetal bovine serum (FBS, from Gibco), 100 IU/ml of penicillin and 100 μg/ml streptomycin, in 5% CO2 humidified atmosphere. HeLa cells and 3134 mouse fibroblasts were transfected by calcium phosphate co-precipitation. To express fluorescent proteins, 3×10^5 cells were plated in 6 cm dishes and were transiently transfected with 8 μg of the appropriate plasmid. Cells were observed 36 hours after transfection. […] About 24 hours after transfection, 3134 fibroblasts were treated for 3 hours with 10 ng/ml trichostatin A (TSA, Sigma) before fixing and imaging. Subclone 12[−] of U937 promoyelocitic cells, kindly provided by M. Alfano and G. Poli (HSR, Milano), was grown in RPMI medium (Gibco) supplemented with 10% FCS, L-glutamine, 100 U/ml penicillin 100 μg/ml streptomycin, exposed for 3 days to 0.1 μM vitamin D3 (Roche) to promote CD14 expression, and stimulated with 100 ng/ml LPS (Sigma catalogue #L4391) or with 10 ng/ml TSA for 3 hours. For the experiments with kinase inhibitors, cells were exposed to 1 μM U0126, 10 μM SB203580 or 30 μM SP600125 (all from Calbiochem) at the same time as LPS, and lasting for 3 hours. Primary human monocytes, purified from peripheral blood (a kind gift from M. Iannacone, HSR), were maintained in RPMI medium supplemented as described above, and were activated with 100 ng/ml LPS.
Cell cultured in LabTek II chambers (Nalgene) were directly fixed in 3.7% paraformaldehyde (PFA) in PHEM buffer (36.8 g/l PIPES, 13 g/l HEPES, 7.6 g/l EGTA, 1.99 g/l MgSO4, buffered to pH 7.0 with KOH) for 10 minutes at room temperature. After fixation, cells were washed with PBS and incubated for 3 minutes at 4° C. with HEPES-based permeabilization buffer containing 300 mM sucrose and 0.2% Triton X-100. Fifteen minutes of incubation in blocking solution (BlS, 0.2% BSA in PBS) followed. Primary antibodies were then diluted in BIS to the suitable final concentration and incubation was prolonged for 1 hour at room temperature. After 3 rinses with BlS, cells were incubated with secondary antibodies in BIS for one hour, washed three times with BlS, and then incubated with PBS containing 0.5 μg/ml Hoechst 33342. The polyclonal rabbit anti-HMGB1 was purchased from BD PharMingen (Torrey Pines, Calif.), and used at 1:1600 dilution. Goat polyclonal antibodies against rabbit IgG (H+L) conjugated to Alexa Fluor 594 (working dilution 1:1000) were purchased from Molecular Probes (Eugene, Oreg., USA).
The secretion of TNF-α, IL-1, IL-8, and PGE2 by LPS-stimulated monocytes can be blocked by inhibiting ERK phosphorylation (Scherle et al., 1998). […] U937.12 cells were exposed to 200 ng/ml LPS in the presence of 1 μM U0126 (a specific inhibitor of ERK phosphorylation), 30 μM SP600125 (a specific inhibitor of Jnk kinases) or 10 μM SB203580 (a specific inhibitor of the p38 kinases). Control cultures were not exposed to LPS, or exposed to LPS but no inhibitors.

[3] = system: human monocytes; assay: HMGB1 translocation to cytoplasmic vesicles in LPS-activated primary monocytes; type: cell-based; details: cycloheximide; time scale about 16-20 hours
Description: as §1, with “Primary human monocytes, purified from peripheral blood (a kind gift from M. Iannacone, HSR), were maintained in RPMI medium supplemented as described above, and were activated with 100 ng/ml LPS.” left out

[4] = system: U937.12 cells; assay: HMGB1 relocation in U937.12 cells treated with TSA without LPS (immunofluorescence); type: cell-based; details: 10 ng/ml TSA for 3 hours, no LPS
Description: (§2) Fibroblasts and HeLa cells were cultured in Dulbecco's modified Eagle's medium (DMEM) supplemented with 10% fetal bovine serum (FBS, from Gibco), 100 IU/ml of penicillin and 100 μg/ml streptomycin, in 5% CO2 humidified atmosphere. HeLa cells and 3134 mouse fibroblasts were transfected by calcium phosphate co-precipitation. To express fluorescent proteins, 3×10^5 cells were plated in 6 cm dishes and were transiently transfected with 8 μg of the appropriate plasmid. Cells were observed 36 hours after transfection. The average amount of HMGB1-GFP in the cell population was between 1 and 3% of HMGB1 (as measured by immunoblotting with anti-HMGB1 antibodies). About 24 hours after transfection, 3134 fibroblasts were treated for 3 hours with 10 ng/ml trichostatin A (TSA, Sigma) before fixing and imaging. Subclone 12[−] of U937 promoyelocitic cells, kindly provided by M. Alfano and G. Poli (HSR, Milano), was grown in RPMI medium (Gibco) supplemented with 10% FCS, L-glutamine, 100 U/ml penicillin 100 μg/ml streptomycin, exposed for 3 days to 0.1 μM vitamin D3 (Roche) to promote CD14 expression, and stimulated with 100 ng/ml LPS (Sigma catalogue #L4391) or with 10 ng/ml TSA for 3 hours. For the experiments with kinase inhibitors, cells were exposed to 1 μM U0126, 10 μM SB203580 or 30 μM SP600125 (all from Calbiochem) at the same time as LPS, and lasting for 3 hours. […]

[5] = system: 3134 mouse fibroblasts; assay: HMGB1-GFP relocation to the cytoplasm in fibroblasts after TSA; type: cell-based; details: 10 ng/ml TSA for 3 hours
Description: as §2

[6] = system: HMGB1 transfer between human and mouse nuclei; assay: Heterokaryon assay: HMGB1 transfer from human to mouse nuclei; type: cell-based; details: for HMGB1 transfer between human and mouse nuclei in heterokaryons: 150 nM leptomycin B, 4 hours at 37° C. with cycloheximide
Text: (A) Heterokaryons were formed by fusing HMGB1-expressing HeLa cells (human) and Hmgb1−/− mouse embryonic fibroblasts. Human cytokeratin and HMGB1 were stained red and green, respectively, with specific antibodies; nuclei were stained blue with DAPI (or Hoechst). Cells with human cytokeratin staining and two nuclei, one of which with bright DAPI-positive heterochromatic spots characteristic of mouse cells, were considered heterokaryons.
Heterokaryons were produced and scored as in panel A; 150 heterokaryons were evaluated for HMGB1 transfer into recipient mouse nuclei for each of the 2 classes (leptomycin and control). The 50% level is equivalent to complete equilibration.
HeLa cells were plated on glass coverslips in a 6-well dish (100 000 cells/dish). After 16 hours, 200 000 Hmgb1−/− mouse fibroblasts were plated on the same coverslips. Following a 3-hour incubation in the presence of 100 μg/ml cycloheximide, the cells were washed with PBS and treated with 100 μl of prewarmed 50% PEG-6000 in PBS for 1 min. After 3 washes with PBS, the cells were incubated with DMEM containing 100 μg/ml cycloheximide for 4 hours, and then fixed with 4% paraformaldehyde. Immunofluorescence was performed using anti-human cytokeratin (Santa Cruz) and anti-HMGB1 antibodies, and chromatin was visualized by DAPI staining. When indicated, 150 nM leptomycin B (a kind gift of Barbara Wolff, Novartis, Vienna) was added to the medium together with cycloheximide.

[7] = molecular target: CRM1 exportin (Homo sapiens, UniProt O14980); assay: Pull down assay with labeled CRM1; details: 0.4 μM (400 nM) leptomycin B in the binding buffer
Sequence of CRM1 exportin (O14980 whole entry): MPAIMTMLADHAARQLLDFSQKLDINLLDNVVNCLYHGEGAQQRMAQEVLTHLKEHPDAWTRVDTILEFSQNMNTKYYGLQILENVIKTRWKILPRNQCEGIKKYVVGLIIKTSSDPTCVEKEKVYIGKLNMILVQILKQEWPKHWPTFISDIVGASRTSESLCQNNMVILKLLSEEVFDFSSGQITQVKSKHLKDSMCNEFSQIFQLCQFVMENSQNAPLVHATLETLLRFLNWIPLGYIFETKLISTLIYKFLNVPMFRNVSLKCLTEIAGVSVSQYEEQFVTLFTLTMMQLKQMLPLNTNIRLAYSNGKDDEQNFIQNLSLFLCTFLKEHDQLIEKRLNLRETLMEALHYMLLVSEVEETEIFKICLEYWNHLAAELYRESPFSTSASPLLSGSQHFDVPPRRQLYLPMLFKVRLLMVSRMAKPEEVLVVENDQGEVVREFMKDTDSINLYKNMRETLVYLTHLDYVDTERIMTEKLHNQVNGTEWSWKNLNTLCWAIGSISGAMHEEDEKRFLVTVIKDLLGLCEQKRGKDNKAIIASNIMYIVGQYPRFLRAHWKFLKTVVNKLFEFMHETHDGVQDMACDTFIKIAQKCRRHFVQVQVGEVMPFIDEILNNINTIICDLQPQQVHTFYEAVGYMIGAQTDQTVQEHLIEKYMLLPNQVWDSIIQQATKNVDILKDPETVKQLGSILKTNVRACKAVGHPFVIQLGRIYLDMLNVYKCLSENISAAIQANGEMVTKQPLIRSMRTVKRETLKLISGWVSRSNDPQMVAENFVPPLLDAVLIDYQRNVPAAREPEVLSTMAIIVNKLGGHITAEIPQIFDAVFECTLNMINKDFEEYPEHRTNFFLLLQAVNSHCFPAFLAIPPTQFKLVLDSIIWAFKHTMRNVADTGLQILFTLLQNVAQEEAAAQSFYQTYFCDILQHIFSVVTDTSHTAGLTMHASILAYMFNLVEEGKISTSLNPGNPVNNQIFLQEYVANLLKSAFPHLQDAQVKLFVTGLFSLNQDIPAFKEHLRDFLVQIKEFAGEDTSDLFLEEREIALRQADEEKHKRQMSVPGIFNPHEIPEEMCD
Description: Labeled CRM1 protein was mixed with beads bearing GST-NS2 immobilized onto Glutathione Sepharose or BSA, tailless HMGB1 (boxA+B) or individual boxes covalently linked to Sepharose. Aliquots representing the input material (In), the fourth wash (W4), the material remaining bound to beads after 5 washes (bound, B), and the unbound material (output, O) were electrophoresed and autoradiographed.
CRM1 protein was in vitro transcribed-translated with the TnT Coupled Reticulocyte Lysate System (Promega) following the manifacturer's protocol, using pSGCRM1 plasmid as template. Seven μl of freshly made [^35S]-Met labeled CRM1 were incubated in 15 μl RAN Buffer (50 mM Tris-HCl pH 7.5, 200 mM NaCl, 2 mM MgCl2, 10% glycerol), 5 μl of 6×CRM1 buffer (20 mM HEPES-KOH pH 7.5, 80 mM CH3COOK, 4 mM Mg (CH3COO)2, 250 mM sucrose, 2.5 mM DTT), 1 mg/ml BSA, 400 nM Leptomycin B where indicated, and approximately 10 μl of beads bearing immobilized GST-NS2, BSA, recombinant tailless HMGB1 (HMGB1ΔC, Muller et al., 2001b), boxA, or boxB. GST-NS2 was coupled to Gluthatione Sepharose (Amersham), the other proteins were covalently cross-linked to Activated Sepharose-CH (Amersham). The incubation was for one hour at 4° C. on a rotating wheel. The beads were pelleted by centrifugation, supernatants were dried in Savant. […]

In the case of `CCCC(=O)[O-].[Na+]` [sodium butyrate], the “hyperacetylation of HMGB1” value [1] is reported as “hyperacetylation could be obtained”.
`C[C@@H]1C[C@@H]([C@H](O)CC2CC(=O)NC(=O)C2)C(=O)[C@@H](C)C1` [cycloheximide] was tested, and the “HMGB1 translocation after LPS” value ([2]; 10 μM cycloheximide starting 20 minutes prior to LPS addition) was “does not block HMGB1 translocation”, the “HMGB1 translocation to vesicles when LPS is added” value ([2]; 10 μg/ml cycloheximide) was “still translocate HMGB1 to vesicles” and the “HMGB1 translocation to cytoplasmic vesicles after LPS” value [3] was “not inhibited”.
`CC(/C=C/C(=O)NO)=C\[C@@H](C)C(=O)c1ccc(N(C)C)cc1` [TSA, trichostatin A] was tested, and the cytoplasmic expansion [4] was “do not show cytoplasmic expansion”, the “relocation of HMGB1 to cytoplasmic vesicles” value [4] was “a fraction of HMGB1 is relocalized to cytoplasmic vesicles; also recorded: a fraction of HMGB1 started to shift to cytoplasmic vesicles” and the “relocation of HMGB1-GFP to the cytoplasm” value [5] was “causes a significant relocation of HMGB1-GFP to the cytoplasm; also recorded: sufficient to relocate a significant amount of HMGB1 to the cytoplasm”. The “HMGB1 isoform spots on 2D gel (hyperacetylation)” value ([1]; 3T3 cells, 10 ng/ml TSA, 6 hours, control 2 spots) was “several HMGB1 spots appeared” and the “hyperacetylation of HMGB1” value [1] was “hyperacetylation could be obtained”.
In the case of `C[S+]([O-])c1ccc(-c2nc(-c3ccncc3)c(-c3ccc(F)cc3)[nH]2)cc1` (centres unmarked) [SB203580], the “HMGB1 relocation to vesicles after LPS” value ([2]; 10 μM SB203580 together with LPS, 3 hours) is reported as “has no effect; also recorded: substantial”.
With `C[C@@H]1NC(=O)[C@H]2CCCN2C(=O)[C@H](CCCCCC(=O)[C@@H]2CO2)NC(=O)[C@@H](C)NC1=O` [HC-toxin] the “hyperacetylation of HMGB1” value [1] was “hyperacetylation could be obtained”.
`N#CC(=C(/N)Sc1ccccc1N)/C(C#N)=C(\N)Sc1ccccc1N` [U0126] was tested, and the “HMGB1 relocation to vesicles after LPS” value [2] was “blocks it completely; also recorded: inhibition of HMGB1 translocation; also recorded: almost completely blocked” and the “HMGB1 translocation after LPS stimulation after removal of the inhibitor” value [2] was “restored”.
For `CCC(=C/[C@H](C)C/C=C/C(C)=C/[C@@H](C)C(=O)[C@@H](C)[C@H](O)[C@@H](C)C/C(C)=C/C(=O)O)/C=C/[C@@H]1OC(=O)C=C[C@@H]1C` [leptomycin B], the “HMGB1 transfer between human and mouse nuclei in heterokaryons” value ([6]; listed as Leptomycin B) was “substantially reduces, but does not abolish”, the “HMGB1 transfer between human and mouse nuclei in heterokaryons” value ([6]; listed as leptomycin) was “strongly reduced” and the “HMGB1 migrated to the mouse nucleus” value ([6]; vast majority of leptomycin-treated heterokaryons, after 4 hours, 50% level = complete equilibration) was “less than 5%”. For the same molecule, the “HMGB1 relocation to vesicles after LPS” value ([2]; 150 nM leptomycin together with LPS, 3 hours) was “partially blocked”, the “HMGB1 relocation to vesicles after LPS” value ([2]; 150 nM leptomycin together with LPS, 3 hours, listed as leptomycin) was “blocks HMGB1 relocation almost completely” and the “binding of labeled CRM1 to GST-NS2 and the HMG boxes (BoxA+B)” value [7] was “did not bind”. The “binding of labeled CRM1 to GST-NS2 and the HMG boxes (BoxA+B)” value ([7]; listed as leptomicin B) was “prevents binding of CRM1”.
